In PubChem BioAssay (NCI):
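Each compound was tested at five concentrations against cells in 96-well plates for 48 hours. GI50 is the concentration that inhibits growth by half. TGI: concentration producing complete growth inhibition.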

test system: NCI-H460 lung; experiment: NCI tumour cell line growth inhibition, 48 h

Point of comparison: `COCOc1ccc(C2(O)Oc3cc(OCOC)ccc3C2C)c(O)c1` (stereo not given), TGI 27.1 µM. Against it:
- C[C@H]1CCC/C=C/[C@@H]2C[C@H](O)C[C@H]2[C@H](O)[C@@H](SCC(O)CO)CC(=O)O1 (stereo not given in full) — higher, > 100 µM
- CC[C@@]1(O)C(=O)OCc2c1cc1n(c2=O)Cc2c-1nc1cc(F)c(C)c3c1c2[C@@H](N)CC3 — higher, > 33.7 µM
- CC/C=C/C/C=C/C/C=C/C/C=C/C/C=C/C/C=C/CCC(=O)Nc1ccn([C@@H]2O[C@H](CO)[C@@H](O)C2(F)F)c(=O)n1 — 2.2-fold lower, 12.1 µM
- C/C(=N\NC(=S)N1CC2CCC(CC2)C1)c1ccccn1 — 20-fold lower, 1.37 µM
- O=C(NCc1ccc(S(=O)(=O)c2cc(F)cc(F)c2)cc1)c1ccc2nccn2c1 — higher, > 100 µM
- NC(=S)N/N=C/c1cc(-c2cccc(N)c2)ccn1 — 3.7-fold lower, 7.27 µM
- CO/N=C(/C)c1cccc(Nc2cc(-c3ccccc3)nc3ccc(OC)cc23)c1 — higher, > 100 µM
- Cc1nn(C(=O)c2ccc(Cl)cc2)c2c1C(c1ccc(O)cc1)SC(N)=N2 (stereo not given) — not separable, > 10 µM
- O=[N+]([O-])c1ccc(CSCc2ccc(Cl)cc2)cc1 — higher, > 100 µM

Point of comparison: `NC(=S)N/N=C/c1cc(-c2cccc(N)c2)ccn1`, GI50 1.07 µM. Against it:
- C[C@H]1CCC/C=C/[C@@H]2C[C@H](O)C[C@H]2[C@H](O)[C@@H](SCC(O)CO)CC(=O)O1 (stereo not given in full) — 25-fold higher, 26.3 µM
- CC[C@@]1(O)C(=O)OCc2c1cc1n(c2=O)Cc2c-1nc1cc(F)c(C)c3c1c2[C@@H](N)CC3 — lower, < 0.01 µM
- CC/C=C/C/C=C/C/C=C/C/C=C/C/C=C/C/C=C/CCC(=O)Nc1ccn([C@@H]2O[C@H](CO)[C@@H](O)C2(F)F)c(=O)n1 — 54-fold lower, 0.0199 µM
- C/C(=N\NC(=S)N1CC2CCC(CC2)C1)c1ccccn1 — 24-fold lower, 0.044 µM
- O=C(NCc1ccc(S(=O)(=O)c2cc(F)cc(F)c2)cc1)c1ccc2nccn2c1 — 2.1-fold lower, 0.514 µM
- CO/N=C(/C)c1cccc(Nc2cc(-c3ccccc3)nc3ccc(OC)cc23)c1 — 6.6-fold higher, 7.07 µM

test system: NCI-H522 lung; experiment: NCI tumour cell line growth inhibition, 48 h

Point of comparison: `CC[C@@]1(O)C(=O)OCc2c1cc1n(c2=O)Cc2c-1nc1cc(F)c(C)c3c1c2[C@@H](N)CC3`, TGI 0.531 µM. Against it:
- COCOc1ccc(C2(O)Oc3cc(OCOC)ccc3C2C)c(O)c1 (stereo not given) — 62-fold higher, 32.8 µM
- C[C@H]1CCC/C=C/[C@@H]2C[C@H](O)C[C@H]2[C@H](O)[C@@H](SCC(O)CO)CC(=O)O1 (stereo not given in full) — higher, > 100 µM
- CC/C=C/C/C=C/C/C=C/C/C=C/C/C=C/C/C=C/CCC(=O)Nc1ccn([C@@H]2O[C@H](CO)[C@@H](O)C2(F)F)c(=O)n1 — 71-fold higher, 37.7 µM
- C/C(=N\NC(=S)N1CC2CCC(CC2)C1)c1ccccn1 — 2.4-fold higher, 1.27 µM
- O=C(NCc1ccc(S(=O)(=O)c2cc(F)cc(F)c2)cc1)c1ccc2nccn2c1 — 81-fold higher, 43 µM
- NC(=S)N/N=C/c1cc(-c2cccc(N)c2)ccn1 — within 1.5-fold, 0.564 µM
- CO/N=C(/C)c1cccc(Nc2cc(-c3ccccc3)nc3ccc(OC)cc23)c1 — higher, > 100 µM
- Cc1nn(C(=O)c2ccc(Cl)cc2)c2c1C(c1ccc(O)cc1)SC(N)=N2 (stereo not given) — higher, > 10 µM
- O=[N+]([O-])c1ccc(CSCc2ccc(Cl)cc2)cc1 — higher, > 100 µM

Point of comparison: `CO/N=C(/C)c1cccc(Nc2cc(-c3ccccc3)nc3ccc(OC)cc23)c1`, GI50 17.8 µM. Against it:
- C[C@H]1CCC/C=C/[C@@H]2C[C@H](O)C[C@H]2[C@H](O)[C@@H](SCC(O)CO)CC(=O)O1 (stereo not given in full) — 5.4-fold higher, 95.6 µM
- CC[C@@]1(O)C(=O)OCc2c1cc1n(c2=O)Cc2c-1nc1cc(F)c(C)c3c1c2[C@@H](N)CC3 — lower, < 0.01 µM
- CC/C=C/C/C=C/C/C=C/C/C=C/C/C=C/C/C=C/CCC(=O)Nc1ccn([C@@H]2O[C@H](CO)[C@@H](O)C2(F)F)c(=O)n1 — 68-fold lower, 0.261 µM
- C/C(=N\NC(=S)N1CC2CCC(CC2)C1)c1ccccn1 — 91-fold lower, 0.195 µM
- O=C(NCc1ccc(S(=O)(=O)c2cc(F)cc(F)c2)cc1)c1ccc2nccn2c1 — lower, < 0.01 µM
- NC(=S)N/N=C/c1cc(-c2cccc(N)c2)ccn1 — 88-fold lower, 0.202 µM

test system: SK-MEL-2 melanoma; experiment: NCI tumour cell line growth inhibition, 48 h

Point of comparison: `COCOc1ccc(C2(O)Oc3cc(OCOC)ccc3C2C)c(O)c1` (stereo not given), TGI 32.7 µM. Against it:
- C[C@H]1CCC/C=C/[C@@H]2C[C@H](O)C[C@H]2[C@H](O)[C@@H](SCC(O)CO)CC(=O)O1 (stereo not given in full) — 2-fold higher, 66.9 µM
- CC[C@@]1(O)C(=O)OCc2c1cc1n(c2=O)Cc2c-1nc1cc(F)c(C)c3c1c2[C@@H](N)CC3 — 23-fold lower, 1.4 µM
- CC/C=C/C/C=C/C/C=C/C/C=C/C/C=C/C/C=C/CCC(=O)Nc1ccn([C@@H]2O[C@H](CO)[C@@H](O)C2(F)F)c(=O)n1 — higher, > 66.8 µM
- C/C(=N\NC(=S)N1CC2CCC(CC2)C1)c1ccccn1 — 16-fold lower, 1.99 µM
- O=C(NCc1ccc(S(=O)(=O)c2cc(F)cc(F)c2)cc1)c1ccc2nccn2c1 — higher, > 74.9 µM
- NC(=S)N/N=C/c1cc(-c2cccc(N)c2)ccn1 — within 1.5-fold, 43.8 µM
- CO/N=C(/C)c1cccc(Nc2cc(-c3ccccc3)nc3ccc(OC)cc23)c1 — higher, > 100 µM
- Cc1nn(C(=O)c2ccc(Cl)cc2)c2c1C(c1ccc(O)cc1)SC(N)=N2 (stereo not given) — not separable, > 10 µM
- O=[N+]([O-])c1ccc(CSCc2ccc(Cl)cc2)cc1 — higher, > 100 µM

Point of comparison: `CC/C=C/C/C=C/C/C=C/C/C=C/C/C=C/C/C=C/CCC(=O)Nc1ccn([C@@H]2O[C@H](CO)[C@@H](O)C2(F)F)c(=O)n1`, GI50 35.9 µM. Against it:
- C[C@H]1CCC/C=C/[C@@H]2C[C@H](O)C[C@H]2[C@H](O)[C@@H](SCC(O)CO)CC(=O)O1 (stereo not given in full) — within 1.5-fold, 25.2 µM
- CC[C@@]1(O)C(=O)OCc2c1cc1n(c2=O)Cc2c-1nc1cc(F)c(C)c3c1c2[C@@H](N)CC3 — 260-fold lower, 0.138 µM
- C/C(=N\NC(=S)N1CC2CCC(CC2)C1)c1ccccn1 — 86-fold lower, 0.419 µM
- O=C(NCc1ccc(S(=O)(=O)c2cc(F)cc(F)c2)cc1)c1ccc2nccn2c1 — 1.8-fold lower, 20.1 µM
- NC(=S)N/N=C/c1cc(-c2cccc(N)c2)ccn1 — 10-fold lower, 3.6 µM
- CO/N=C(/C)c1cccc(Nc2cc(-c3ccccc3)nc3ccc(OC)cc23)c1 — within 1.5-fold, 50.3 µM

test system: SK-OV-3 ovarian; experiment: NCI tumour cell line growth inhibition, 48 h

Point of comparison: `CC[C@@]1(O)C(=O)OCc2c1cc1n(c2=O)Cc2c-1nc1cc(F)c(C)c3c1c2[C@@H](N)CC3`, TGI 1.41 µM. Against it:
- COCOc1ccc(C2(O)Oc3cc(OCOC)ccc3C2C)c(O)c1 (stereo not given) — 23-fold higher, 31.8 µM
- C[C@H]1CCC/C=C/[C@@H]2C[C@H](O)C[C@H]2[C@H](O)[C@@H](SCC(O)CO)CC(=O)O1 (stereo not given in full) — higher, > 100 µM
- CC/C=C/C/C=C/C/C=C/C/C=C/C/C=C/C/C=C/CCC(=O)Nc1ccn([C@@H]2O[C@H](CO)[C@@H](O)C2(F)F)c(=O)n1 — higher, > 52.2 µM
- C/C(=N\NC(=S)N1CC2CCC(CC2)C1)c1ccccn1 — within 1.5-fold, 1.01 µM
- O=C(NCc1ccc(S(=O)(=O)c2cc(F)cc(F)c2)cc1)c1ccc2nccn2c1 — 43-fold higher, 60.6 µM
- NC(=S)N/N=C/c1cc(-c2cccc(N)c2)ccn1 — higher, > 93.8 µM
- CO/N=C(/C)c1cccc(Nc2cc(-c3ccccc3)nc3ccc(OC)cc23)c1 — 51-fold higher, 72 µM
- Cc1nn(C(=O)c2ccc(Cl)cc2)c2c1C(c1ccc(O)cc1)SC(N)=N2 (stereo not given) — higher, > 10 µM
- O=[N+]([O-])c1ccc(CSCc2ccc(Cl)cc2)cc1 — higher, > 100 µM

Point of comparison: `C/C(=N\NC(=S)N1CC2CCC(CC2)C1)c1ccccn1`, GI50 0.0465 µM. Against it:
- C[C@H]1CCC/C=C/[C@@H]2C[C@H](O)C[C@H]2[C@H](O)[C@@H](SCC(O)CO)CC(=O)O1 (stereo not given in full) — 750-fold higher, 34.7 µM
- CC[C@@]1(O)C(=O)OCc2c1cc1n(c2=O)Cc2c-1nc1cc(F)c(C)c3c1c2[C@@H](N)CC3 — lower, < 0.01 µM
- CC/C=C/C/C=C/C/C=C/C/C=C/C/C=C/C/C=C/CCC(=O)Nc1ccn([C@@H]2O[C@H](CO)[C@@H](O)C2(F)F)c(=O)n1 — 3-fold higher, 0.14 µM
- O=C(NCc1ccc(S(=O)(=O)c2cc(F)cc(F)c2)cc1)c1ccc2nccn2c1 — 370-fold higher, 17.1 µM
- NC(=S)N/N=C/c1cc(-c2cccc(N)c2)ccn1 — 71-fold higher, 3.29 µM
- CO/N=C(/C)c1cccc(Nc2cc(-c3ccccc3)nc3ccc(OC)cc23)c1 — 630-fold higher, 29.2 µM

test system: SNB-75 CNS; experiment: NCI tumour cell line growth inhibition, 48 h

Point of comparison: `COCOc1ccc(C2(O)Oc3cc(OCOC)ccc3C2C)c(O)c1` (stereo not given), TGI 30.4 µM. Against it:
- C[C@H]1CCC/C=C/[C@@H]2C[C@H](O)C[C@H]2[C@H](O)[C@@H](SCC(O)CO)CC(=O)O1 (stereo not given in full) — higher, > 100 µM
- CC[C@@]1(O)C(=O)OCc2c1cc1n(c2=O)Cc2c-1nc1cc(F)c(C)c3c1c2[C@@H](N)CC3 — 300-fold lower, 0.101 µM
- CC/C=C/C/C=C/C/C=C/C/C=C/C/C=C/C/C=C/CCC(=O)Nc1ccn([C@@H]2O[C@H](CO)[C@@H](O)C2(F)F)c(=O)n1 — higher, > 50.1 µM
- C/C(=N\NC(=S)N1CC2CCC(CC2)C1)c1ccccn1 — 15-fold lower, 2.07 µM
- O=C(NCc1ccc(S(=O)(=O)c2cc(F)cc(F)c2)cc1)c1ccc2nccn2c1 — 1.5-fold higher, 45.8 µM
- NC(=S)N/N=C/c1cc(-c2cccc(N)c2)ccn1 — higher, > 100 µM
- CO/N=C(/C)c1cccc(Nc2cc(-c3ccccc3)nc3ccc(OC)cc23)c1 — higher, > 100 µM
- Cc1nn(C(=O)c2ccc(Cl)cc2)c2c1C(c1ccc(O)cc1)SC(N)=N2 (stereo not given) — not separable, > 10 µM
- O=[N+]([O-])c1ccc(CSCc2ccc(Cl)cc2)cc1 — higher, > 100 µM

Point of comparison: `O=C(NCc1ccc(S(=O)(=O)c2cc(F)cc(F)c2)cc1)c1ccc2nccn2c1`, GI50 15.3 µM. Against it:
- C[C@H]1CCC/C=C/[C@@H]2C[C@H](O)C[C@H]2[C@H](O)[C@@H](SCC(O)CO)CC(=O)O1 (stereo not given in full) — 2.3-fold lower, 6.77 µM
- CC[C@@]1(O)C(=O)OCc2c1cc1n(c2=O)Cc2c-1nc1cc(F)c(C)c3c1c2[C@@H](N)CC3 — lower, < 0.0137 µM
- CC/C=C/C/C=C/C/C=C/C/C=C/C/C=C/C/C=C/CCC(=O)Nc1ccn([C@@H]2O[C@H](CO)[C@@H](O)C2(F)F)c(=O)n1 — 18-fold lower, 0.863 µM
- C/C(=N\NC(=S)N1CC2CCC(CC2)C1)c1ccccn1 — 24-fold lower, 0.643 µM
- NC(=S)N/N=C/c1cc(-c2cccc(N)c2)ccn1 — 7.1-fold lower, 2.15 µM
- CO/N=C(/C)c1cccc(Nc2cc(-c3ccccc3)nc3ccc(OC)cc23)c1 — 2.8-fold higher, 42.9 µM
